Experimental data published in US4231928A, “Antibacterial agents” (priority 1979, dated 1980).
In brackets after ≈: the same amount, converted by molar mass. Where two headings read alike, the source gives them in different places.

Columns and labels:
[1] = tested on: D. pneumoniae; assay: Tube dilution (Nutrient broth), D. pneumoniae; format: cell-based; details: Streptococcus pneumoniae, Dp-4 D. pneumoniae A9585, Table 3
Description: (§1) The MIC's of BB-P598 against various organisms were also determined by the tube dilution method (Nutrient broth), and the results, compared with sulbenicillin, are shown in Table 3.

[2] = tested on: S. pyogenes; assay: Tube dilution (Nutrient broth), S. pyogenes; format: cell-based; details: Streptococcus pyogenes, Sp-3 S. pyogenes A9604, Table 3
Description: as §1

[3] = tested on: S. aureus; assay: Tube dilution (Nutrient broth), S. aureus; format: cell-based; details: Staphylococcus aureus
Description: as §1

[4] = tested on: S. enteritidis; assay: Tube dilution (Nutrient broth), S. enteritidis; format: cell-based; details: Salmonella enterica, Se-1 S. enteritidis A9531, Table 3
Description: as §1

[5] = tested on: E. coli; assay: Tube dilution (Nutrient broth), E. coli; format: cell-based; details: Escherichia coli
Description: as §1

[6] = tested on: K. pneumoniae; assay: Tube dilution (Nutrient broth), K. pneumoniae; format: cell-based; details: Klebsiella pneumoniae
[7] = tested on: P. mirabilis; assay: Tube dilution (Nutrient broth), P. mirabilis; format: cell-based; details: Proteus mirabilis, Pm-2 P. mirabilis A9900, Table 3
Description: as §1

[8] = tested on: P. morganii; assay: Tube dilution (Nutrient broth), P. morganii; format: cell-based; details: Morganella morganii
Description: as §1

[9] = tested on: S. marcescens; assay: Tube dilution (Nutrient broth), S. marcescens; format: cell-based; details: Serratia marcescens
Description: as §1

[10] = tested on: E. cloacae; assay: Tube dilution (Nutrient broth), E. cloacae; format: cell-based; details: Enterobacter cloacae, El-1 E. cloacae A9656, Table 3
Description: as §1

[11] = tested on: P. aeruginosa; assay: Tube dilution (Nutrient broth), P. aeruginosa; format: cell-based; details: Pseudomonas aeruginosa
Description: as §1

[12] = tested on: P. aeruginosa A9843; assay: Effect of inoculum size on MIC, serial tube dilution (Nutrient Broth); format: cell-based; details: for MIC ratio b/a: inoculum 5.3 × 10^5 / 5.3 × 10^4 cell/ml; for MIC ratio c/a: inoculum 5.3 × 10^6 / 5.3 × 10^4 cell/ml
Description: (§2) The effect of inoculum size of the MIC and MBC (Minimum Bacteriacidal Concentration) of BB-P598 against P. aeruginosa A9843 also was determined. The MIC's were determined by the serial tube dilution method in Nutrient Broth using four levels of inoculum size (5.3×10^3, 5.3×10^4, 5.3×10^5 and 5.3×10^6 cells/ml), along with sulbenicillin as a reference standard.

[13] = tested on: P. aeruginosa A9843; assay: Effect of inoculum size on MBC and MBC/MIC ratio; format: cell-based; details: Table 5; for MBC: Pseudomonas aeruginosa, 99% killed
Description: as §2
Subsequent to the above MIC determinations, aliquots from the non-turbid tubes were added to Nutrient Agar plates to determine the MBC value. The MBC was assigned to the lowest concentration which killed 99% of the original cell population.

[14] = tested on: P. aeruginosa A9843; assay: In vivo activity in experimental infection in mice, P. aeruginosa A9843; details: single; for Survival/Tested: 100×LD50 challenge; for ED50: Pseudomonas aeruginosa, A9843, sc, dose required to protect 50% of the infected mice, read-out: PD50
Description: (§3) BB-P598 was evaluated in vivo in experimental infections in mice. The pathogenic bacteria employed were P. aeruginosa A9843, E. coli Juhl and S. aureus Smith. Mice were challenged intraperitoneally with a 100×LD50 dose of the pathogens in a 5% suspension of hog gastric mucin. The penicillin was administered subcutaneously as a single treatment, just after the bacterial challenge.
(§4) PD50 = Protective Dose50 , i.e. the dose required to give
(§5) protection to 50% of the infected mice.

[15] = tested on: E. coli Juhl; assay: In vivo activity in experimental infection in mice, E. coli Juhl; details: single; for Survival/Tested: 100×LD50 challenge; for ED50: Escherichia coli, sc, dose required to protect 50% of the infected mice, read-out: PD50
Description: as §3, §4, §5

[16] = tested on: S. aureus Smith; assay: In vivo activity in experimental infection in mice, S. aureus Smith; details: single; for Survival/Tested: 100×LD50 challenge; for ED50: Staphylococcus aureus, sc, dose required to protect 50% of the infected mice, read-out: PD50
Description: as §3, §4, §5

[17] = tested on: P. aeruginosa A9843; assay: MIC of the infecting strain with the in vivo test, P. aeruginosa A9843; format: cell-based; details: Pseudomonas aeruginosa, Table 7
[18] = tested on: E. coli Juhl; assay: MIC of the infecting strain with the in vivo test, E. coli Juhl; format: cell-based; details: Escherichia coli, Table 7
[19] = tested on: S. aureus Smith; assay: MIC of the infecting strain with the in vivo test, S. aureus Smith; format: cell-based; details: Staphylococcus aureus, Table 7, read-out: MC
[20] = tested on: Pseudomonas; assay: Agar dilution, activity against Pseudomonas strains; format: cell-based
Description: (§6) The Minimum Inhibitory Concentrations (MIC) for sodium 6-[D-(-)-α-phenyl-α-(7-hydroxy-4-oxo-4H-pyrimido[1,2-b]pyridazin-3-ylcarboxamido)acetamido]penicillanate (BB-P598) and sulbenicillin were determined by the serial twofold agar dilution method using Steers' apparatus on Mueller-Hinton agar plates against 31 test organisms for the primary screening (Table 1) and also against 61 strains of Pseudomonas aeruginosa for the secondary evaluation (Table 2).

[21] = tested on: S. aureus and the Gram-negative organisms except Pseudomonas; assay: Agar dilution, activity against S. aureus and Gram-negative organisms except Pseudomonas; format: cell-based; details: most of the 6 strains of S. aureus and 19 Gram-negative strains except Pseudomonas
Description: as §6

[22] = tested on: Pseudomonas aeruginosa; details: prior art penicillins; cited from earlier work
[23] = Sa-2 S. aureus Smith +50% serum, Table 3
[24] = Sa-11 S. aureus BX-1633 A9606, Table 3
[25] = Sa-44 S. aureus A15097, Table 3
[26] = Kp-3 K. pneumoniae A9977, Table 3
[27] = Kp-4 K. pneumoniae A15130, Table 3
[28] = Pa-13 P. aeruginosa A9843, Table 3
[29] = Pa-19 P. aeruginosa A20229, Table 3
[30] = Pa-57 P. aeruginosa A20546, Table 3
[31] = Pseudomonas aeruginosa, A9843, inoculum 5.3 × 10^4 cell/ml, Nutrient Broth, Table 4, read-out: MIC (a)
[32] = Pseudomonas aeruginosa, A9843, inoculum 5.3 × 10^4 cell/ml, Table 5, read-out: MIC
[33] = Pseudomonas aeruginosa, A9843, inoculum 5.3 × 10^6 cell/ml, Nutrient Broth, Table 4, read-out: MIC (c)
[34] = A9843, inoculum 5.3 × 10^3 cell/ml
[35] = A9843, inoculum 5.3 × 10^4 cell/ml

CC1(C)S[C@@H]2[C@H](NC(=O)[C@H](NC(=O)c3cnc4ccc(O)nn4c3=O)c3ccccc3)C(=O)N2[C@H]1C(=O)O [BB-P598, sodium 6-[D-(-)-α-phenyl-α-(7-hydroxy-4-oxo-4H-pyrimido[1,2-b]pyridazin-3-ylcarboxamido)acetamido]penicillanate]
MIC [1]: 0.01 µg/mL
MIC [2]: 0.08 µg/mL
MIC [3, 23]: 1.6 µg/mL
MIC [3, 24]: 50 µg/mL
MIC [3, 25]: 100 µg/mL
MIC [4]: 3.1 µg/mL
MIC ([5]; Ec-1 E. coli NIHJ, Table 3): 6.3 µg/mL
MIC ([5]; Ec-58 E. coli A9675, Table 3): 50 µg/mL
MIC [6, 26]: 12.5 µg/mL
MIC [6, 27]: > 100 µg/mL
MIC [7]: 6.3 µg/mL
MIC ([8]; Pg-8 P. morganii A15153, Nutrient broth, Table 3, read-out: MIC): > 100 µg/mL
MIC ([9]; Sm-1 S. marcescens A20019, Nutrient broth, Table 3, read-out: MIC): 50 µg/mL
MIC [10]: 100 µg/mL
MIC [11, 28]: 6.3 µg/mL
MIC [11, 29]: 6.3 µg/mL
MIC [11, 30]: 3.1 µg/mL
MIC ([12]; Pseudomonas aeruginosa, A9843, inoculum 5.3 × 10^3 cell/ml, Nutrient Broth, Table 4, read-out: MIC): 6.3 µg/mL
MIC ([12]; Pseudomonas aeruginosa, A9843, inoculum 5.3 × 10^3 cell/ml, Table 5, read-out: MIC): 6.3 µg/mL
MIC [12, 31]: 12.5 µg/mL
MIC [12, 32]: 12.5 µg/mL
MIC ([12]; Pseudomonas aeruginosa, A9843, inoculum 5.3 × 10^5 cell/ml, Nutrient Broth, Table 4, read-out: MIC (b)): ≤ 25 µg/mL
MIC [12, 33]: > 100 µg/mL
MIC ratio b/a ([12]; Table 4): 2
MIC ratio c/a ([12]; Table 4): > 8
MBC [13, 34]: 50 µg/mL
MBC [13, 35]: > 100 µg/mL
MBC/MIC ([13]; inoculum 5.3 × 10^3 cell/ml): 8
MBC/MIC ([13]; inoculum 5.3 × 10^4 cell/ml): > 8
Survival/Tested ([14]; 1.6 mg/kg sc): 0/5
Survival/Tested ([14]; 6.3 mg/kg sc): 1/5
Survival/Tested ([14]; 25 mg/kg sc): 1/5
Survival/Tested ([14]; 100 mg/kg sc): 3/5
ED50 [14]: 54 mg/kg
Survival/Tested ([15]; 1.6 mg/kg sc): 0/5
Survival/Tested ([15]; 6.3 mg/kg sc): 1/5
Survival/Tested ([15]; 25 mg/kg sc): 2/5
Survival/Tested ([15]; 100 mg/kg sc): 3/5
ED50 [15]: 40 mg/kg
Survival/Tested ([16]; 1.6 mg/kg sc): 0/5
Survival/Tested ([16]; 6.3 mg/kg sc): 5/5
Survival/Tested ([16]; 25 mg/kg sc): 5/5
Survival/Tested ([16]; 100 mg/kg sc): 5/5
ED50 [16]: 3.1 mg/kg
MIC [17]: 6.3 µg/mL
MIC [18]: 25 µg/mL
MIC [19]: 3.1 µg/mL
mean % relative activity to sulbenicillin ([20]; 6 strains of Pseudomonas in Table 1): 713%
activity relative to sulbenicillin (in words) ([20]; Pseudomonas): significantly more active than sulbenicillin
activity relative to sulbenicillin (in words) [21]: equal to or less active than sulbenicillin

CC1(C)S[C@@H]2[C@H](NC(=O)C(C(=O)O)c3ccccc3)C(=O)N2[C@H]1C(=O)O (stereo partly drawn) [Carbenicillin, reference compound]
potency against Pseudomonas aeruginosa (in words) [22]: only a relatively low potency

CC1(C)S[C@@H]2[C@H](NC(=O)C(c3ccccc3)S(=O)(=O)O)C(=O)N2[C@H]1C(=O)O (stereo partly drawn) [Sulbenicillin, reference compound]
MIC [1]: 0.08 µg/mL (≈ 0.193 µM)
MIC [2]: 0.31 µg/mL (≈ 0.748 µM)
MIC [3, 23]: 3.1 µg/mL (≈ 7.48 µM)
MIC ([3]; Sa-2 S. aureus Smith A9537, Table 3): 3.1 µg/mL (≈ 7.48 µM)
MIC [3, 24]: 12.5 µg/mL (≈ 30.2 µM)
MIC [3, 25]: 25 µg/mL (≈ 60.3 µM)
MIC [4]: 1.6 µg/mL (≈ 3.86 µM)
MIC ([5]; Ec-1 E. coli NIHJ, Table 3): 6.3 µg/mL (≈ 15.2 µM)
MIC ([5]; Ec-58 E. coli A9675, Table 3): 100 µg/mL (≈ 241 µM)
MIC [6, 26]: 6.3 µg/mL (≈ 15.2 µM)
MIC [6, 27]: > 100 µg/mL
MIC [7]: 0.8 µg/mL (≈ 1.93 µM)
MIC [8]: 12.5 µg/mL (≈ 30.2 µM)
MIC [9]: 25 µg/mL (≈ 60.3 µM)
MIC [10]: 50 µg/mL (≈ 121 µM)
MIC [11, 28]: 25 µg/mL (≈ 60.3 µM)
MIC [11, 29]: > 100 µg/mL
MIC [11, 30]: 25 µg/mL (≈ 60.3 µM)
MIC [12, 31]: 50 µg/mL (≈ 121 µM)
MIC [12, 32]: 50 µg/mL (≈ 121 µM)
MIC [12, 33]: > 400 µg/mL
MIC ([12]; inoculum 5.3 × 10^3 cell/ml, Table 5): 25 µg/mL (≈ 60.3 µM)
MIC ratio b/a ([12]; Table 4): 4
MIC ratio c/a ([12]; Table 4): > 8
MBC [13, 34]: 100 µg/mL
MBC [13, 35]: 200 µg/mL
MBC/MIC ([13]; inoculum 5.3 × 10^3 cell/ml): 4
MBC/MIC ([13]; inoculum 5.3 × 10^4 cell/ml): 4
Survival/Tested ([14]; 1.6 mg/kg sc): 0/5
Survival/Tested ([14]; 6.3 mg/kg sc): 0/5
Survival/Tested ([14]; 25 mg/kg sc): 0/5
Survival/Tested ([14]; 100 mg/kg sc): 2/5
Survival/Tested ([14]; 400 mg/kg sc): 4/5
ED50 [14]: 140 mg/kg
Survival/Tested ([15]; 1.6 mg/kg sc): 0/5
Survival/Tested ([15]; 6.3 mg/kg sc): 1/5
Survival/Tested ([15]; 25 mg/kg sc): 5/5
Survival/Tested ([15]; 100 mg/kg sc): 5/5
ED50 [15]: 9.5 mg/kg
Survival/Tested ([16]; 0.4 mg/kg sc): 0/5
Survival/Tested ([16]; 1.6 mg/kg sc): 0/5
Survival/Tested ([16]; 6.3 mg/kg sc): 5/5
Survival/Tested ([16]; 25 mg/kg sc): 5/5
ED50 [16]: 3.1 mg/kg
MIC [17]: 25 µg/mL
MIC [18]: 25 µg/mL
MIC [19]: 6.3 µg/mL
potency against Pseudomonas aeruginosa (in words) [22]: only a relatively low potency
